Results taken from patent US11952354B1, “5-((2-isopropyl-5-methylphenoxy)methyl)-3-(naphthalen-2-yl)-1,2,4-oxadiazole as an anti-cancer and antimicrobial compound” (KING FAISAL UNIVERSITY, priority 2023, dated 2024).

Tests used:
Bacillus Cereus = assay: agar plate disc-diffusion, antibacterial inhibition zone; type: cell-based
Description: (§1) The agar plate disc-diffusion method was applied. […] The discs were then placed onto the surface of agar plates (nutrient agar for bacteria and Sabouraud's dextrose agar for fungi) seeded with the test organism. Each plate contained 15 mL of the agar medium, previously seeded with 0.2 mL of the broth culture of each organism pregrown for 18 hours. The plates were incubated at 37° C. for 48 h, and 72 h for fungi. The inhibition zones were measured in mm. Discs impregnated with DMSO were used as a control, and its inhibition zone was subtracted from the tested compound actual inhibition zone.

Escherichia coli = assay: as above; type: cell-based
Description: as §1

Pseudomonas aeruginosa = assay: as above; type: cell-based
Description: as §1

Staphylococcus aureus = assay: as above; type: cell-based
Description: as §1

Aspergillus flavus = assay: agar plate disc-diffusion, antifungal inhibition zone; type: cell-based
Description: as §1

[1] = system: Chrysosporium keratinophilum; assay: as above; type: cell-based
Description: as §1

[2] = system: human osteosarcoma cells (MG-63); assay: cytotoxicity by SRB assay; type: cell-based; details: MG-63 cells, 0.01 μM to 100 μM for 72 h
Description: (§2) The anticancer activity of the described synthesized compounds against highly aggressive androgen-independent metastatic human prostate cancer cells (PC3) and osteosarcoma (MG-63) cells. The human prostate cancer cells (PC3) and human osteosarcoma cells (MG-63) were obtained from Nawah Scientific Inc. (Mokatam, Cairo, Egypt) and cultured in DMEM (Dulbecco's modified eagle's medium), Gibco, USA, supplemented with fetal bovine serum (FBS) at a concentration of 10% and 100 U/mL of penicillin and streptomycin (PS). The Cells were incubated at 37° C. in a humidified environment that contained 5% CO2.
(§3) Cells were seeded in 96-well plates as aliquots of 100 μL cell suspension and incubated in a complete media for 24 h. afterward, cells were treated with 5-((2-isopropyl-5-methylphenoxy)methyl)-3-(naphthalen-2-yl)-1,2,4-oxadiazole at diverse concentrations ranging from 0.01 μM to 100 μM for 72 h. Then, cells were fixed at 4° C. for one hour with 150 μL of 10% trichloroacetic acid (TCA). […] Then, 150 μL of Tris pH 10.5 (10 mM) was added, and the absorbance was measured at 540 nm using a BMG LABTECH®-FLUOstar Omega microplate reader (Ortenberg, Germany). Half maximal inhibitory concentrations (IC50) values were calculated for each experiment using GraphPad Prism 6 software. […]
(§4) The inhibition was calculated using the following equation: Inhibition %=100−Average Viability

[3] = system: human prostate cancer cells (PC3); assay: cytotoxicity by SRB assay; type: cell-based; details: 0.01 μM to 100 μM for 72 h
Description: as §2, §3, §4

different microbes = assay: agar plate disc-diffusion, overall antimicrobial activity; type: cell-based; details: against different microbes (bacteria and fungi)
Description: The agar plate disc-diffusion method was applied. Sterilized filter papers (6 mm in diameter) were wetted with 10 μL of a solution of 5-((2-isopropyl-5-methylphenoxy)methyl)-3-(naphthalen-2-yl)-1,2,4-oxadiazole (3) to be tested, containing 10 mg/mL in DMSO, and the discs were allowed to air dry. The discs were then placed onto the surface of agar plates (nutrient agar for bacteria and Sabouraud's dextrose agar for fungi) seeded with the test organism. Each plate contained 15 mL of the agar medium, previously seeded with 0.2 mL of the broth culture of each organism pregrown for 18 hours. The plates were incubated at 37° C. for 48 h, and 72 h for fungi. The inhibition zones were measured in mm. Discs impregnated with DMSO were used as a control, and its inhibition zone was subtracted from the tested compound actual inhibition zone.

[4] = A = concentration of comp. = 10,000 μL
[5] = B = concentration of comp. = 30,000 μL
[6] = C = concentration of comp. = 50,000 μL

Structure (SMILES) | inhibition zone (Bacillus Cereus; [4]) | inhibition zone (Bacillus Cereus; [5]) | inhibition zone (Bacillus Cereus; [6]) | inhibition zone (Escherichia coli; [4]) | inhibition zone (Escherichia coli; [5]) | inhibition zone (Escherichia coli; [6]) | inhibition zone (Pseudomonas aeruginosa; [4]) | inhibition zone (Pseudomonas aeruginosa; [5]) | inhibition zone (Pseudomonas aeruginosa; [6]) | inhibition zone (Staphylococcus aureus; [4]) | inhibition zone (Staphylococcus aureus; [5]) | inhibition zone (Staphylococcus aureus; [6]) | inhibition zone (Aspergillus flavus; [4]) | inhibition zone (Aspergillus flavus; [5]) | inhibition zone (Aspergillus flavus; [6]) | inhibition zone [1, 4] | inhibition zone [1, 5] | inhibition zone [1, 6] | further results
O=C(O)c1cn(C2CC2)c2cc(N3CCNCC3)c(F)cc2c1=O [Cip., ciprofloxacin, reference compound] | 29 mm | 30 mm | 42 mm | 30 mm | 39 mm | 60 mm | 29 mm | 30 mm | 53 mm | 43 mm | 44 mm | 53 mm | 29 mm | 30 mm | 42 mm | 29 mm | 30 mm | 53 mm | –
Cc1ccc(C(C)C)c(OCc2nc(-c3ccc4ccccc4c3)no2)c1 [compound 3, 5-((2-isopropyl-5-methylphenoxy)methyl)-3-(naphthalen-2-yl)-1,2,4-oxadiazole] | 24 mm | 27 mm | 38 mm | 28 mm | 34 mm | 49 mm | 25 mm | 29 mm | 40 mm | 17 mm | 24 mm | 32 mm | 20 mm | 25 mm | 33 mm | 26 mm | 29 mm | 45 mm | antiproliferative activity [2]: excellent antiproliferative activities; antiproliferative activity [3]: excellent antiproliferative activities; antimicrobial activity (different microbes): excellent antimicrobial activities; melting point: 187 to 188 °C
